Measurements: patent publication US12077503B2, “Substituted cyclic amides and their use as herbicides” (FMC CORPORATION, priority 2015, dated 2024)

Key:
Type in all cases: in vivo
[1] = tested on: sedge, umbrella (small-flower umbrella sedge, Cyperus difformis); test: Test B flooded paddy test; conditions: Cyperus difformis, Flood, 250 g ai/ha; scale of 0 to 100 where 0 is no effect and 100 is complete control; read-out: Sedge, Umbrella plant response rating
How it was run: (§1)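 Greenhouse paddy pots with 2-leaf stage plants received compound by direct addition to floodwater 3 cm deep, kept at that level. Scored visually at 13–15 d versus controls (0 no effect; 100 complete control).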

[2] = tested on: barnyardgrass (Echinochloa crus-galli); test: Test B flooded paddy test; conditions: Echinochloa crus-galli, Flood, 250 g ai/ha; scale of 0 to 100 where 0 is no effect and 100 is complete control; read-out: Barnyardgrass plant response rating
How it was run: as §1

[3] = tested on: rice (Oryra sativa); test: Test B flooded paddy test; conditions: Oryza sativa, Flood, 250 g ai/ha; scale of 0 to 100 where 0 is no effect and 100 is complete control; read-out: Rice plant response rating
How it was run: as §1

[4] = tested on: ducksalad (Heteranthera limosa); test: Test B flooded paddy test; conditions: Heteranthera limosa, Flood, 250 g ai/ha; scale of 0 to 100 where 0 is no effect and 100 is complete control; read-out: Ducksalad plant response rating
How it was run: as §1

[5] = tested on: ryegrass, Italian (Italian ryegrass, Lolium multiflorum); test: Test A postemergence; conditions: Lolium multiflorum, post-emergence, 240 h, 125 g ai/ha, postemergence; visual injury after approximately 10 d; 0 to 100 scale (0 no effect, 100 complete control); read-out: Plant response rating, Ryegrass, Italian
How it was run: (§2)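 Compounds were formulated in a non-phytotoxic solvent mixture with surfactant and applied as a preemergence directed soil spray after seeding, or sprayed postemergence over plants 2 to 10 cm tall at the one- to two-leaf stage. Evaluation after about 10 d compared treated with untreated controls, using a scale from 0 (no effect) to 100 (complete control).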

[6] = tested on: ragweed (common ragweed, Ambrosia elatior); test: Test A postemergence; conditions: Ambrosia artemisiifolia, post-emergence, 240 h, 125 g ai/ha, postemergence; visual injury after approximately 10 d; 0 to 100 scale (0 no effect, 100 complete control); read-out: Plant response rating, Ragweed
How it was run: as §2

[7] = tested on: barnyardgrass (Echinochloa crus-galli); test: Test A postemergence; conditions: Echinochloa crus-galli, post-emergence, 240 h, 125 g ai/ha, postemergence; visual injury after approximately 10 d; 0 to 100 scale (0 no effect, 100 complete control); read-out: Plant response rating, Barnyardgrass
How it was run: as §2

[8] = tested on: Galium (catchweed bedstraw, Galium aparine); test: Test A postemergence; conditions: Galium, post-emergence, 240 h, 125 g ai/ha, postemergence; visual injury after approximately 10 d; 0 to 100 scale (0 no effect, 100 complete control); read-out: Plant response rating, Galium
How it was run: as §2

[9] = tested on: Kochia (Kochia scoparia); test: Test A postemergence; conditions: Bassia scoparia, post-emergence, 240 h, 125 g ai/ha, postemergence; visual injury after approximately 10 d; 0 to 100 scale (0 no effect, 100 complete control); read-out: Plant response rating, Kochia
How it was run: as §2

[10] = tested on: corn (Zea mays); test: Test A postemergence; conditions: Zea mays, post-emergence, 240 h, 125 g ai/ha, postemergence; visual injury after approximately 10 d; 0 to 100 scale (0 no effect, 100 complete control)
How it was run: as §2

[11] = tested on: wheat (Triticum aestivum); test: Test A postemergence; conditions: Triticum aestivum, post-emergence, 240 h, 125 g ai/ha, postemergence; visual injury after approximately 10 d; 0 to 100 scale (0 no effect, 100 complete control); read-out: Plant response rating, Wheat
How it was run: as §2

[12] = tested on: pigweed (Amaranthus retroflexus); test: Test A postemergence; conditions: Amaranthus retroflexus, post-emergence, 240 h, 125 g ai/ha, postemergence; visual injury after approximately 10 d; 0 to 100 scale (0 no effect, 100 complete control); read-out: Plant response rating, Pigweed
How it was run: as §2

[13] = tested on: blackgrass (Alopecurus myosuroides); test: Test A postemergence; conditions: Alopecurus myosuroides, post-emergence, 240 h, 125 g ai/ha, postemergence; visual injury after approximately 10 d; 0 to 100 scale (0 no effect, 100 complete control); read-out: Plant response rating, Blackgrass
How it was run: as §2

[14] = tested on: giant foxtail (Setaria faberii); test: Test A postemergence; conditions: Setaria faberi, post-emergence, 240 h, 125 g ai/ha, postemergence; visual injury after approximately 10 d; 0 to 100 scale (0 no effect, 100 complete control); read-out: Plant response rating, Foxtail, Giant
How it was run: as §2

SMILES	pest or weed control at 250 g/ha [1]	pest or weed control at 250 g/ha [2]	pest or weed control at 250 g/ha [3]	pest or weed control at 250 g/ha [4]	pest or weed control at 125 g/ha [5]	pest or weed control at 125 g/ha [6]	pest or weed control at 125 g/ha [7]	pest or weed control at 125 g/ha [8]	pest or weed control at 125 g/ha [9]	Corn plant response rating (crop injury, 0 = no effect, 100 = complete kill) at 125 g/ha [10]	plant injury at 125 g/ha [11]	pest or weed control at 125 g/ha [12]	pest or weed control at 125 g/ha [13]	pest or weed control at 125 g/ha [14]
Cc1cc([C@H]2CNC(=O)[C@@H]2C(=O)Nc2ccc(F)cc2F)ccc1F [Compound 718]	0%	40%	0%	100%	0%	0%	70%	40%	30%	0%	0%	0%	20%	30%
Cc1cc([C@H]2CN(C)C(=O)[C@@H]2C(=O)Nc2ccc(F)c(F)c2F)ccc1F [Compound 719]	0%	85%	0%	100%	50%	30%	90%	60%	60%	90%	80%	50%	60%	90%
Cc1ccc([C@H]2CNC(=O)[C@@H]2C(=O)Nc2cccc(F)c2F)c(F)c1 [Compound 720]	0%	30%	0%	100%	0%	0%	90%	50%	50%	0%	0%	0%	20%	20%
